In general, pEC50 refers to the negative decadic logarithm of the EC50, by convention in mol/L. For orientation: pIC50 means the negative decadic logarithm of the IC50, by convention in mol/L. The low end stands for a high IC50, the high end for a low IC50.

SMILES strings stand for the structures. pEC50, pIC50: −log10 of the molar value. “And” between values parts separate entries of the source, which are not always exact repeats. Equal values may be shown once. The source made the active and inactive calls.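 The calls were made as follows: active = compounds giving half or more protection of infected cells from virus-caused growth loss, again on retest; inactive = the rest.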 Some results are limits rather than exact numbers.

The test system of the assay is CEM cells HIV-1 protection, formazan growth assay. Nature of the assay: NCI AIDS Antiviral Assay. The note with it: for pIC50: measured here: growth of uninfected CEM cells. The gist of the method: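 Soluble formazan readout of cell growth; CEM cells ± HIV-1; 5 drug concs. ≥50% protection → retest; ≥50% again = moderately active; reproducible 100% = confirmed active.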

Turning to `O=c1c(SCc2cccc(F)c2)c(SCc2cccc(F)c2)cnn1-c1ccccc1`, the pEC50 was less than 4.52 and the pIC50 is 4.66.
Consider `NC1CC(=O)c2cc(Br)sc21` (stereo unspecified), for which the pEC50 is less than 3.70 and the pIC50 is less than 3.70.
Turning to `CC(=O)NC1C(O[C@H]2CC[C@@]3(C)C(CC[C@]4(C)C3CC=C3C5CC(C)(C)CC[C@]5(C(=O)O)CCC34C)C2(C)C)OC(CO)C(O)C1O` (stereo partly specified), the pEC50 is less than 3.70 and the pIC50 was 5.04.
On the same counts, the results for `O=C1c2ccccc2-c2nnc3c(c21)-c1ccccc1C3` are less than 3.70 and 4.03.
On the same counts, the results for `O=c1c2cccnc2[nH]c2ccc3[nH]ncc3c12` are less than 3.70 and 4.30.
The corresponding values for `COc1ccc(-c2nc3ccccc3s2)cc1S(=O)(=O)O` are less than 3.98 and 4.02.
Turning to `CCOC(=O)C[N+]1(C)C2CCC1CC(O)C2` (stereo unspecified), the pEC50 was less than 3.70 and the pIC50 was less than 3.70.
Turning to `O=C1CCC2(c3ccccc3)Nc3ccccc3N12` (stereo unspecified), the pEC50 is less than 3.70 and the pIC50 is 3.90.
Regarding `CCC(C(=O)OC)C1CCN(C)C(=O)C12CO2` (stereo unspecified), the pEC50 is less than 2.99 and the pIC50 is less than 2.99.
For `CCCCCCc1cc2cc(-c3csc(-c4ccc(OC)cc4)n3)c(=O)oc2cc1O`, the pEC50 was less than 3.70 and the negative-log IC50 (pIC50) is 5.04.
For the compound `COc1ccc(NC(=O)CC(=O)N/N=C/c2ccc(N(CCC#N)S(C)(=O)=O)cc2)cc1`, the pEC50 is less than 3.83 and the pIC50 is less than 3.83.
On to `C=CCOC(=O)/C(=C\c1ccc(OC)c(OC)c1)c1ccc(OC)c(OC)c1`, for which the pEC50 is less than 3.70 and the pIC50 was less than 3.70.
Turning to `CC(C)(C)c1ccc(-c2nc3ccccc3c(=O)o2)cc1`, the pEC50 is less than 3.70 and the negative-log IC50 (pIC50) is 4.41.
For the compound `O=C1NC(=S)NC1C(Cc1ccccc1)c1ccccc1` (stereo unspecified), the pEC50 is less than 3.70 and the pIC50 is 4.07.
With `Clc1nssc1=Nc1nonc1-c1ccccc1`, the pEC50 is less than 3.70 and the pIC50 is 5.26.
On the same counts, the results for `CCOC(CN=C=S)OCC` are less than 3.70 and 4.56.
Turning to `COc1ccccc1NC(=O)/C(=C/n1c(=S)[nH]c2ccccc21)C(C)=O`, the pEC50 is less than 3.70 and the pIC50 was less than 3.70.
For `Cc1c(Cl)cccc1NC(=O)CC1Sc2ccccc2NC1=O` (stereo unspecified), the pEC50 was less than 4.56; the pIC50 was < 4.56 and 4.81.
Turning to `O=C(/C=C/c1cc(O)c(O)cc1O)OCCc1ccccc1`, the pEC50 is less than 3.70 and the negative-log IC50 (pIC50) was 5.03.
Consider `CCOC(=O)c1sc2c(C(=O)OCC)c3cc(C)ccn3c2c1N`, for which the result was inactive.
Turning to `O=C1Oc2ccccc2CC1C(=O)c1ccc([N+](=O)[O-])cc1` (stereo unspecified), the pEC50 is less than 4.20 and the pIC50 is 4.28.
Consider `CC(=O)/C=C(/C=N/O)c1ccccc1`, for which the pEC50 was less than 3.70 and the pIC50 is less than 3.70.
For `COC(OC)c1cccnc1C`, the pEC50 was less than 2.83 and the pIC50 was 2.98.
As to `COc1ccc2[nH]c(C(=O)N3CC(CCl)c4ccc(N)cc43)cc2c1` (stereo unspecified), the pEC50 was less than 5.70 and the negative-log IC50 (pIC50) is 6.41.
On to `O=Cc1c2ccccc2n2ccc3c4ccccc4[nH]c3c12`, for which the pEC50 was less than 3.70 and the pIC50 was less than 3.70.
With `O=[N+]([O-])c1ccc2cnn(CSP(=S)(c3ccccc3)c3ccccc3)c2c1`, the pEC50 was less than 3.70 and the pIC50 was 5.52.
For `CN(N)C(=O)NCCCl`, the pEC50 is less than 3.70 and the pIC50 is less than 3.70.
For the compound `CN1CC(c2ccccc2)=Cc2c1ccc(N)c2N=N`, the pEC50 is less than 3.70 and the pIC50 was less than 3.70.
Turning to `O=C1CC(=O)NC(=NN2C(=O)/C(=C/C(=O)c3ccco3)N=C2c2ccccc2)N1`, the pEC50 was less than 3.70 and the pIC50 was 4.49.
For the compound `CC(C)(O)/C=C\P(=O)(O)O`, the pEC50 is less than 3.70 and the pIC50 is less than 3.70.
For the compound `COC(=O)[C@@H](N1C(=O)c2ccccc2C1=O)C1(C)CC(Cl)=NO1` (stereo partly specified), the pEC50 was less than 3.70 and the pIC50 is less than 3.70.

Source of the values: PubChem BioAssay AID179 (DTP/NCI, 2004).
